Patent publication US4500467A, “Benzoylthio compounds, their preparation and their use as drugs” (BASF Aktiengesellscaft, priority 1982, dated 1985)

Target: T1, angiotensin converting enzyme (Rattus norvegicus, UniProt P47820)
T1 construct: from tissue; host or cells: rat blood plasma (ex vivo, after oral dosing)
T1 sequence (P47820 36-1238 limits assumed): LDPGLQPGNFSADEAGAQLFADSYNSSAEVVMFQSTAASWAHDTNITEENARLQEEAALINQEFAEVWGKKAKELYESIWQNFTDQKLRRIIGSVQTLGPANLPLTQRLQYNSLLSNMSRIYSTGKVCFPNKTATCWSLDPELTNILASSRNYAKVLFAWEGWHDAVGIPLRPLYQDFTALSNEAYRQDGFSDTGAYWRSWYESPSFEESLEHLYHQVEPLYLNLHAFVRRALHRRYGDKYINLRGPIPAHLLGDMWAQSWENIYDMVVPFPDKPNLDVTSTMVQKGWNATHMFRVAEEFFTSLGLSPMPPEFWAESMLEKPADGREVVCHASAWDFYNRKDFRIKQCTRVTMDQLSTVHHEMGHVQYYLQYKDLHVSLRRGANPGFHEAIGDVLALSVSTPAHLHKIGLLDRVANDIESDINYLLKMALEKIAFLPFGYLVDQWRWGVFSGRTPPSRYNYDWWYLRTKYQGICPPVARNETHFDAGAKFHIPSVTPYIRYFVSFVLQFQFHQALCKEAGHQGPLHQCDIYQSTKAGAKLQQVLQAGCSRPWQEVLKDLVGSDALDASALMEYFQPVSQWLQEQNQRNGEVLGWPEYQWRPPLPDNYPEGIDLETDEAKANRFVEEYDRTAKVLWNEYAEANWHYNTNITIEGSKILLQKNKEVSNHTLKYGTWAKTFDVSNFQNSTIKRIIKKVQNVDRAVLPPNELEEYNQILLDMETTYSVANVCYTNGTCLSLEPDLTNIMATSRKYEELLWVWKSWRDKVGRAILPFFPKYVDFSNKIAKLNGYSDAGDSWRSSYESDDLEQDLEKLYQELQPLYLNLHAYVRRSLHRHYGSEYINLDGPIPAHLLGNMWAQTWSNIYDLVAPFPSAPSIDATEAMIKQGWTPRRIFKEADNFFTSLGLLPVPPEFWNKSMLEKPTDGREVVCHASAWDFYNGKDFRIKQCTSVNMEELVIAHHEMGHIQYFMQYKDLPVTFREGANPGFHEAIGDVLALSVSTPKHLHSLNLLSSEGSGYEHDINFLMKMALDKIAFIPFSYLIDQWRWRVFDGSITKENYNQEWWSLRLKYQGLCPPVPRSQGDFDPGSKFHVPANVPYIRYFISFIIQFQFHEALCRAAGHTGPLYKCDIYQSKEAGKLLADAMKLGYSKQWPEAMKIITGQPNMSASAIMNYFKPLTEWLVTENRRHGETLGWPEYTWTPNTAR
Assay: inhibition of angiotensin converting enzyme ex vivo in rats (plasma before and 2 hours after oral administration, 14C-hippuryl-histidylleucine substrate)
Conditions: for angiotensin converting enzyme is inhibited in doses smaller than the captopril dose: compared with captopril dose; for ED50: rat, plasma 2 hours after administration, read-out: ED 50% (dose which produces 50% inhibition of angiotensin converting enzyme); for relative activity: relative to captopril = 1.00, from ED 50%
Procedure: The following method was used in investigating the pharmacodynamic effect (inhibition of angiotensin converting enzyme ex vivo in rats):
Before, and 2 hours after, oral administration of the substance, blood was withdrawn from the animals, and the plasma was diluted 1:6 with H2 O. The diluted plasma (100 μl) was incubated with 50 μl of ^14 C-hippuryl-histidylleucine solution (K phosphate 260 mM, NaCl 938 mM, pH=8.3) for 1 hour at 37° C. The reaction was terminated by adding 2 ml of 0.1N HCl, and the product, ^14 C-hippuric acid, was extracted with toluene scintillator (PPO+POPOP+toluene+21% of isoamyl alcohol) and determined using a scintillation counter for liquids. After subtraction of the blank value (incubation time=0 minute), the percentage inhibition was determined from the enzymatic activities in the plasma before and after administration of the substance. The ED 50%, ie. the dose which produces 50% inhibition, is calculated from the individual inhibitory values by linear regression following logit-log transformation.

SMILES	angiotensin converting enzyme is inhibited in doses smaller than the captopril dose [times smaller]	ED50 [mg/kg]	relative activity
C[C@H](NC(=O)[C@H](CSC(=O)c1ccccc1)SC(=O)c1ccccc1)C(=O)N1CCC[C@H]1C(=O)O [Example 70, N-[(R)-2,3-Bis-(benzoylthio)-propionyl]-alanylproline]	5	0.2	5.0
O=C(SC[C@H](SC(=O)c1ccccc1)C(=O)N[C@@H](Cc1c[nH]c2ccccc12)C(=O)O)c1ccccc1 [Example 68, N-[(R)-2,3-Bis-(benzoylthio)-propionyl]-tryptophan]	5	0.2	5.0
